Source: patent publication US20230227838A1, “ENHANCED CELL SURVIVAL AGAINST BIOTIC AND ABIOTIC STRESSES THROUGH SALICYLICK ACID-INDUCED NPR1 CONDENSATES” (priority 2020, published 2023)

Legend:
ubiquitinated proteins = test: Accumulation of ubiquitinated proteins (α-Ub immunoblot of total protein); type: in vivo, Arabidopsis thaliana; details: WT; absent in npr1-2; SA for 6 hr
Protocol: Protein analysis and IP. Recombinant protein analysis was performed using transient expression in N. benthamiana, or stable over-expression in transgenic Arabidopsis, or expression in E. coli. Total protein extraction from plants was performed by homogenizing leaf tissue in the plant extraction buffer [50 mM Tris-HCl (pH 7.5), 150 mM NaCl, 5 mM EDTA, 0.2% Triton X-100, 0.2% Nonidet P-40] supplemented with 1 mM PMSF, 100 μM MG132, and EDTA-free protease inhibitor cocktail (Roche). For ubiquitinated protein analysis in plants, 100 μM of DUB (deubiquitinase) inhibitor (LifeSensors) and 10 mM NEM were added. Next, the lysates were cleared by centrifugation at 14,000 rpm for 15 min followed by filtering through a 0.2 μm filter. […] Pull-downs or IP experiments were done on total protein extracts by incubating protein samples in the lysis buffer overnight with indicated affinity tag or antibody conjugated to agarose or magnetic beads: GFP-trap agarose beads (Chromotek) for GFP fusions; RFP-trap agarose beads (Chromotek) for mCherry fusions; anti-HA magnetic beads (ThermoFisher) for HA tag fusions; anti-DYKDDDDK coupled magnetic agarose (ThermoFisher) for FLAG tag fusions; and glutathione magnetic agarose (ThermoFisher) for GST fusions. Unless otherwise indicated, after pull-down/IP, beads were washed 3 times and proteins were eluted by boiling in the 2×SDS sample buffer. […]

CUL3 = test: Pull-down of Myc-CUL3 with GST-fused NPR1 or variants co-expressed in E. coli; type: binding, Arabidopsis thaliana
Description: Plasmid construction and E. coli-based ubiquitination: The coding sequences for all Arabidopsis genes were amplified from cDNA. Point mutations of AtNPR1 (AT1G64280) were generated using the QuikChange II site-directed mutagenesis kit (Agilent). Overlap PCR was used to generate the deletion/truncation mutations of AtCUL3A (AT1G26830) and AtNPR1. The WT and mutated coding sequences for all genes and gene fusions were sub-cloned into the pDONR207 gateway donor vector and confirmed by sequencing. The obtained entry vectors were recombined into either plant or E. coli destination vectors without or with an N- or C-terminal tag. For in planta expression, genes were recombined into the plant binary vectors pK7FWG2, pSITE-4NB and pLN462 to generate C-terminal eGFP, mCherry and HA fusions, respectively; into pK7WGF2, pEG201, pEG202, pEG203 and pEG204 to generate N-terminal eGFP, HA, FLAG, Myc and V5 fusions, respectively. […] For bimolecular fluorescence complementation (BiFC), entry vectors carrying the coding sequences of genes and their mutant variants were recombined into the pSITE-cEYFP-N1 binary vector for C-terminal fusion with the cYFP half (YC), or into the pSITE-nEYFP-C1 for N-terminal fusion with the nYFP half (YN). […]

Molecule | accumulation of ubiquitinated proteins (ubiquitinated proteins) | interaction with CUL3 when co-expressed in E. coli (CUL3)
O=C(O)c1ccccc1O [SA, salicylic acid] | concentration-dependent accumulation of ubiquitinated proteins | –
NPR1: wild-type Arabidopsis thaliana NPR1 protein, positive regulator of systemic acquired resistance | – | could be easily observed
